Data as given in patent publication US10287301B2 (Achillion Pharmaceuticals, Inc., priority 2015, dated 2019).

What follows are compounds tested against Human Factor D (Homo sapiens (Human), UniProt P00746) (assay: Human Factor D Assay). Conditions: not given.
Type: biochemical
How it was run: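 Serum-purified human Factor D (80 nM final) was preincubated with test compound at various concentrations for 5 min at room temperature in 50 mM Tris, 1M NaCl, pH 7.5. Z-L-Lys-SBzl and DTNB were then added at 100 μM each. IC50 came from nonlinear regression of reaction rates versus compound concentration.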

Sequence of Human Factor D (P00746 26-253): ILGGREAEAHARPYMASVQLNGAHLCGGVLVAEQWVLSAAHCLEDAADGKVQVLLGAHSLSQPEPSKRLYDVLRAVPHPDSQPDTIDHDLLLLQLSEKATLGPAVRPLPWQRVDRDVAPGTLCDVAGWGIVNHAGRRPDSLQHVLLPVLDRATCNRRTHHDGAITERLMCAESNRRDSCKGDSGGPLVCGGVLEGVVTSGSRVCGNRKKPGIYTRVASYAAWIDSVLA

Row | SMILES | IC50 [µM]
1 | CC(=O)c1cn(CC(=O)N2C[C@H](F)C[C@H]2C(=O)Nc2cccc(-c3ccccc3Cl)c2Cl)c2ccc(-c3cnc(C)nc3)cc12 [Compound 149, (2S,4R)-1-(2-(3-acetyl-5-(2-methylpyrimidin-5-yl)-1H-indol-1-yl)acetyl)-N-(2,2′-dichlorobiphenyl-3-yl)-4-fluoropyrrolidine-2-carboxamide] | < 1
2 | CC(=O)c1cn(CC(=O)N2C[C@H](F)C[C@H]2C(=O)Nc2cc(O)ccn2)c2ccc(-c3ccnnc3)cc12 [Compound 177, (2S,4R)-1-(2-(3-acetyl-5-(pyridazin-4-yl)-1H-indol-1-yl)acetyl)-4-fluoro-N-(4-hydroxypyridin-2-yl)pyrrolidine-2-carboxamide] | 1 to 10

Same assay, conditions: Human Factor D 80 nM, substrate Z-L-Lys-SBzl; read-out: IC50

Row | SMILES | IC50 [µM]
3 | CC(=O)c1cn(CC(=O)N2C[C@H](F)C[C@H]2C(=O)N[C@@H]2CCC[C@H]2O)c2ccc(-c3ccnnc3)cc12 [Compound 143, (2S,4R)-1-(2-(3-acetyl-5-(pyridazin-4-yl)-1H-indol-1-yl)acetyl)-4-fluoro-N-((1R,2R)-2-hydroxycyclopentyl) pyrrolidine-2-carboxamide] | > 10
4 | CC(=O)c1cn(CC(=O)N2C[C@H](F)C[C@H]2C(=O)Nc2cccc(O)n2)c2ccc(-c3ccnnc3)cc12 [Compound 144, (2S,4R)-1-(2-(3-acetyl-5-(pyridazin-4-yl)-1H-indol-1-yl)acetyl)-4-fluoro-N-(6-hydroxypyridin-2-yl)pyrrolidine-2-carboxamide] | > 10
5 | NC(=O)c1nn(CC(=O)N2C[C@H](F)C[C@H]2C(=O)N[C@@H]2CCC[C@H]2O)c2ccc(-c3ccnnc3)cc12 [Compound 145, 1-(2-((2S,4R)-4-fluoro-2-((1R,2R)-2-hydroxycyclopentylcarbamoyl)pyrrolidin-1-yl)-2-oxoethyl)-5-(pyridazin-4-yl)-1H-indazole-3-carboxamide] | > 10
6 | NC(=O)c1nn(CC(=O)N2C[C@H](F)C[C@H]2C(=O)Nc2nc(-c3cccc(Cl)c3)ns2)c2ccc(-c3ccnnc3)cc12 [Compound 146, 1-(2-((2S,4R)-2-(3-(3-chlorophenyl)-1,2,4-thiadiazol-5-ylcarbamoyl)-4-fluoropyrrolidin-1-yl)-2-oxoethyl)-5-(pyridazin-4-yl)-1H-indazole-3-carboxamide] | > 10
7 | CC(=O)c1cn(CC(=O)N2C[C@H](F)C[C@H]2C(=O)Nc2nc(-c3cccc(Cl)c3)ns2)c2ccc(-c3ccnnc3)cc12 [Compound 147, (2S,4R)-1-(2-(3-acetyl-5-(pyridazin-4-yl)-1H-indol-1-yl)acetyl)-N-(3-(3-chlorophenyl)-1,2,4-thiadiazol-5-yl)-4-fluoropyrrolidine-2-carboxamide] | > 10
8 | CC(=O)c1cn(CC(=O)N2C[C@H](F)C[C@H]2C(=O)Nc2cccc(-c3cc(F)c(F)cc3Cl)c2F)c2ccc(-c3cnc(C)nc3)cc12 [Compound 150, (2S,4R)-1-(2-(3-acetyl-5-(2-methylpyrimidin-5-yl)-1H-indol-1-yl)acetyl)-N-(2′-chloro-2,4′,5′-trifluorobiphenyl-3-yl)-4-fluoropyrrolidine-2-carboxamide] | < 1
9 | CC(=O)c1cn(CC(=O)N2C[C@H](F)C[C@H]2C(=O)Nc2cccc(-c3ccccc3Cl)c2F)c2ccc(-c3ccc(C)nc3)cc12 [Compound 151, (2S,4R)-1-(2-(3-acetyl-5-(6-methylpyridin-3-yl)-1H-indol-1-yl)acetyl)-N-(2′-chloro-2-fluorobiphenyl-3-yl)-4-fluoropyrrolidine-2-carboxamide] | < 1
10 | CC1Oc2cccc(NC(=O)[C@@H]3C[C@@H](F)CN3C(=O)Cn3nc(C(N)=O)c4cc(-c5ccnnc5)ccc43)c2NC1=O (stereo partly drawn) [Compound 152, 1-(2-((2S,4R)-4-fluoro-2-(2-methyl-3-oxo-3,4-dihydro-2H-benzo[b][1,4]oxazin-5-ylcarbamoyl)pyrrolidin-1-yl)-2-oxoethyl)-5-(pyridazin-4-yl)-1H-indazole-3-carboxamide] | > 10
11 | CC(=O)c1cn(CC(=O)N2C[C@H](F)C[C@H]2C(=O)Nc2cccc3c2NC(=O)C(C)O3)c2ccc(-c3ccnnc3)cc12 (stereo partly drawn) [Compound 153, (2S,4R)-1-(2-(3-acetyl-5-(pyridazin-4-yl)-1H-indol-1-yl)acetyl)-4-fluoro-N-(2-methyl-3-oxo-3,4-dihydro-2H-benzo[b][1,4]oxazin-5-yl)pyrrolidine-2-carboxamide] | > 10
12 | NC(=O)c1nn(CC(=O)N2C[C@H](F)C[C@H]2C(=O)Nc2cc(O)ccn2)c2ccc(-c3ccnnc3)cc12 [Compound 154, 1-(2-((2S,4R)-4-fluoro-2-(4-hydroxypyridin-2-ylcarbamoyl)pyrrolidin-1-yl)-2-oxoethyl)-5-(pyridazin-4-yl)-1H-indazole-3-carboxamide] | > 10
13 | Cn1ccc(N2CCC(NC(=O)[C@@H]3C[C@@H](F)CN3C(=O)Cn3nc(C(N)=O)c4cc(-c5ccnnc5)ccc43)C2=O)n1 (stereo partly drawn) [Compound 155, 1-(2-((2S,4R)-4-fluoro-2-(1-(1-methyl-1H-pyrazol-3-yl)-2-oxopyrrolidin-3-ylcarbamoyl)pyrrolidin-1-yl)-2-oxoethyl)-5-(pyridazin-4-yl)-1H-indazole-3-carboxamide] | > 10
14 | CC(=O)c1cn(CC(=O)N2C[C@H](F)C[C@H]2C(=O)Nc2c[nH]nc2-c2ccc(Cl)cc2Cl)c2ccc(-c3ccnnc3)cc12 [Compound 156, (2S,4R)-1-(2-(3-acetyl-5-(pyridazin-4-yl)-1H-indol-1-yl)acetyl)-N-(3-(2,4-dichlorophenyl)-1H-pyrazol-4-yl)-4-fluoropyrrolidine-2-carboxamide] | > 10
15 | NC(=O)c1nn(CC(=O)N2C[C@H](F)C[C@H]2C(=O)NCc2ccncc2)c2ccc(-c3ccnnc3)cc12 [Compound 157, 1-(2-((2S,4R)-4-fluoro-2-(pyridin-4-ylmethylcarbamoyl)pyrrolidin-1-yl)-2-oxoethyl)-5-(pyridazin-4-yl)-1H-indazole-3-carboxamide] | > 10
16 | Cc1cc(NC(=O)[C@@H]2C[C@@H](F)CN2C(=O)Cn2nc(C(N)=O)c3cc(-c4ccnnc4)ccc32)n(-c2ccccc2F)n1 [Compound 158, 1-(2-((2S,4R)-4-fluoro-2-(1-(2-fluorophenyl)-3-methyl-1H-pyrazol-5-ylcarbamoyl)pyrrolidin-1-yl)-2-oxoethyl)-5-(pyridazin-4-yl)-1H-indazole-3-carboxamide] | > 10
17 | CC(=O)c1cn(CC(=O)N2C[C@@H](F)C[C@@H]2C(=O)NC2CCCN(c3ccccc3Cl)C2=O)c2ccc(-c3ccnnc3)cc12 (stereo partly drawn) [Compound 161, (2R,4S)-1-(2-(3-acetyl-5-(pyridazin-4-yl)-1H-indol-1-yl)acetyl)-N-(1-(2-chlorophenyl)-2-oxopiperidin-3-yl)-4-fluoropyrrolidine-2-carboxamide] | < 1
18 | CC(=O)c1nn(CC(=O)N2C[C@H](F)C[C@H]2C(=O)Nc2cccc(-c3ccccc3Cl)c2F)c2ccc(-c3cnc(C)nc3)cc12 [Compound 163, (2S,4R)-1-(2-(3-acetyl-5-(2-methylpyrimidin-5-yl)-1H-indazol-1-yl)acetyl)-N-(2′-chloro-2-fluorobiphenyl-3-yl)-4-fluoropyrrolidine-2-carboxamide] | < 1
19 | CC(=O)c1cn(CC(=O)N2C[C@H](F)C[C@H]2C(=O)Nc2cccc(-c3ncccc3Cl)c2F)c2ccc(-c3cnc(C)nc3)cc12 [Compound 164, (2S,4R)-1-(2-(3-acetyl-5-(2-methylpyrimidin-5-yl)-1H-indol-1-yl)acetyl)-N-(3-(3-chloropyridin-2-yl)-2-fluorophenyl)-4-fluoropyrrolidine-2-carboxamide] | < 1
20 | NC(=O)c1nn(CC(=O)N2C[C@H](F)C[C@H]2C(=O)Nc2cc(=O)[nH]n2C2CCCCC2)c2ccc(-c3ccnnc3)cc12 [Compound 168, 1-(2-((2S,4R)-2-(2-cyclohexyl-5-oxo-2,5-dihydro-1H-pyrazol-3-ylcarbamoyl)-4-fluoropyrrolidin-1-yl)-2-oxoethyl)-5-(pyridazin-4-yl)-1H-indazole-3-carboxamide] | > 10
21 | CC(=O)c1cn(CC(=O)N2C[C@H](F)C[C@H]2C(=O)Nc2n[nH]c(C)c2-c2ccccc2)c2ccc(-c3ccnnc3)cc12 [Compound 169, (2S,4R)-1-(2-(3-acetyl-5-(pyridazin-4-yl)-1H-indol-1-yl)acetyl)-4-fluoro-N-(5-methyl-4-phenyl-1H-pyrazol-3-yl)pyrrolidine-2-carboxamide] | < 1
22 | NC(=O)c1nn(CC(=O)N2C[C@H](F)C[C@H]2C(=O)N[C@H]2CCCC[C@@H]2O)c2ccc(-c3ccnnc3)cc12 [Compound 172, 1-(2-((2S,4R)-4-fluoro-2-((1S,2S)-2-hydroxycyclohexylcarbamoyl)pyrrolidin-1-yl)-2-oxoethyl)-5-(pyridazin-4-yl)-1H-indazole-3-carboxamide] | > 10
23 | CC(=O)c1cn(CC(=O)N2C[C@H](F)C[C@H]2C(=O)Nc2ccnc(=O)n2C)c2ccc(-c3ccnnc3)cc12 [Compound 173, (2S,4R)-1-(2-(3-acetyl-5-(pyridazin-4-yl)-1H-indol-1-yl)acetyl)-4-fluoro-N-(3-methyl-2-oxo-2,3-dihydropyrimidin-4-yl)pyrrolidine-2-carboxamide] | > 10
24 | NC(=O)c1nn(CC(=O)N2C[C@H](F)C[C@H]2C(=O)Nc2cccc(O)n2)c2ccc(-c3ccnnc3)cc12 [Compound 174, 1-(2-((2S,4R)-4-fluoro-2-(6-hydroxypyridin-2-ylcarbamoyl)pyrrolidin-1-yl)-2-oxoethyl)-5-(pyridazin-4-yl)-1H-indazole-3-carboxamide] | > 10
25 | CC(=O)c1cn(CC(=O)N2C[C@H](F)C[C@H]2C(=O)Nc2ccc(O)cn2)c2ccc(-c3ccnnc3)cc12 [Compound 175, (2S,4R)-1-(2-(3-acetyl-5-(pyridazin-4-yl)-1H-indol-1-yl)acetyl)-4-fluoro-N-(5-hydroxypyridin-2-yl)pyrrolidine-2-carboxamide] | > 10
26 | NC(=O)c1nn(CC(=O)N2C[C@H](F)C[C@H]2C(=O)Nc2ccc(O)cn2)c2ccc(-c3ccnnc3)cc12 [Compound 176, 1-(2-((2S,4R)-4-fluoro-2-(5-hydroxypyridin-2-ylcarbamoyl)pyrrolidin-1-yl)-2-oxoethyl)-5-(pyridazin-4-yl)-1H-indazole-3-carboxamide] | > 10
